For data set [1], the system named is HBs protein (S-HBs, M-HBs, and L-HBs) mRNA. In words: Knockdown of HBs protein mRNA expression levels in HepG2.2.15 cells (RT-qPCR relative to GAPDH mRNA). The data set is classed as cell-based, hepatitis B virus. The note with it: for IC50: Hepatitis B virus, read-out: Estimated IC50 values (knockdown of HBs protein mRNA expression levels); for knockdown effects on HBs protein mRNA expression levels: day 6 post-first exposure (data not shown); for knockdown HBs protein mRNA expression levels (in words): library screen, 50 µM, day 4 post-first exposure, HepG2.2.15 cells. Here is the method: HepG2.2.15 cells (seeded at a density of 4 x 10^4 cells per well in 96-well plates) were cultured at 37 °C in humidified air with 5 % CO2. Once cells had reached confluence, initial screening of ginsenoside library compounds was performed with each compound added individually to culture media at a final concentration of 50 µM. Cells were then further incubated at 37 °C under 5 % CO2. At day 4 post-first exposure, cells were then collected to determine the percentage knockdowns of HBs protein mRNA expression levels relative to GAPDH mRNA levels (as described below).
Thereafter, more extensive studies were performed with HepG2.2.15 cells as follows. After cells were grown to confluence, as above, culture media were replaced with media containing one of the selected ginsenosides as appropriate, or else with LMV or ginsenoside/LMV combinations at the indicated concentrations. Cells were then further incubated at 37 °C under 5 % CO2. At the indicated times (at day 2, 4, or 6 post-first exposure; or at just day 5 post-first exposure), cell and culture media samples respectively were collected for subsequent detection of HBs protein mRNA expression levels or secreted HBV DNA and HBsAg levels (as described below).
RNA extraction from cells was performed using the QIAamp® Viral RNA Mini kit (Qiagen, Germany), according to manufacturer's instructions. RNA integrity was evaluated by electrophoresis on 1% agarose gels, and quantified using a ND1000 spectrophotometer (NanoDrop Technologies, Germany). Following this, extracted RNA (1 µg) was used to synthesize cDNA using a SensiFAST™ cDNA Synthesis Kit (Meridian Bioscience Inc, Cincinnati, OH, USA) according to manufacturer's instructions. RT-qPCR reactions were then performed with qPCR 2xSYBR master mix (Top-Bio, Czech Republic) on a LightCycler® real-time PCR system (Roche, Switzerland), using the indicated primers specific for amplification of HBs protein (S-HBs, M-HBs, and L-HBs) and GAPDH control mRNAs (Table 1). PCR amplification was performed on multiple RT-qPCR reaction mixtures (each 20 µl) located in individual wells of a 96-well optical-grade PCR plate, sealed with optical sealing tape (Bio-Rad Laboratories, Hercules, CA, USA). Each RT-qPCR reaction mixture comprised synthesized cDNA (2 µl) (diluted 1:1), appropriate primers (each 0.4 µl, […]), 2xSYBR green PCR master mix (10 µl) and ddH2O (7.2 µl). PCR amplification involved one cycle at 94 °C (5 min), followed by 40 cycles of denaturation at 94 °C (20 s), then annealing and extension at 57 °C for 20 s, plus 72 °C for 30 s. Finally, melting curve analyses were performed by slowly heating the PCR reaction mixtures from 65 to 95 °C, in increments of 0.5 °C every 5 s, with simultaneous measurements of the SYBR green signal intensities. Percentage knockdowns of HBs protein mRNA expression levels were determined relative to GAPDH mRNA levels using calculated 2^-ΔΔct values [Livak, K.J; Schmittgen, T.D. Analysis of relative gene expression data using real-time quantitative PCR and the 2(-Delta Delta C(T)) Method. Methods 2001, 25, 402-8]. Three biological replicates were performed for each data point where fold change (FC) ≥ 2 is considered statistically significant. Table 1. Primers for RT-qPCR detection of specific mRNAs

The next data set has as its system HepG2.2.15 cells. Briefly: Cytotoxicity assay (CCK-8 cell viability). The class given is cell-based, human. The following applies: 3.12-100 µM; for HepG2.2.15 cytotoxicity: day 2 and 4 post-first exposure; for cell viabilities: day 6 post-first exposure, unrelated to ginsenoside doses, non-specific decline. The protocol: HepG2.2.15 cells (seeded at a density of 4 x 10^4 cells per well in 96-well plates) were cultured at 37 °C in humidified air with 5 % CO2. After cells reached 70-80 % confluence, initial screening of ginsenoside library compounds was performed with each compound added to cultured HepG2.2.15 cell at a final concentration of 50 µM. Cells were then further incubated at 37 °C under 5 % CO2. At day 4 post-first exposure of cells to each ginsenoside library compound, percentage cell viabilities were determined by CCK-8 (Dojindo Laboratories, Kumamoto, Japan) used according to manufacturer's instructions. Thereafter, cytotoxicity studies were performed with appropriate quantities of selected ginsenosides (Rg6, Rh4, or Rb3) added to cultured HepG2.2.15 cells at final concentrations of 100, 50, 25, 12.5, 6.25 or 3.12 µM. Cells were then incubated at 37 °C under 5 % CO2. At day 2, 4, and 6 post-first exposure of cells to the selected ginsenosides, percentage cell viabilities were determined by CCK-8 assay as above. Final cytotoxicity studies were performed with combinations of ginsenoside compounds (Rg6, Rh4 or Rb3) (at 80, 40, 20, 10, 5 or 2.5 µM) and LMV (at 0.08, 0.04, 0.02, 0.01, 0.005 or 0.0025 µM) respectively added to cultured HepG2.2.15 cells. Once more, cells were further incubated at 37 °C under 5 % CO2. At day 5 post-first exposure of cells to ginsenoside/LMV combinations, percentage cell viabilities were determined by CCK-8 assay once again.

Structures are written as SMILES. Read-outs that look alike come from different tables or passages of the source.

Take `CC(C)=CCC[C@](C)(O[C@@H]1O[C@H](CO[C@@H]2OC[C@@H](O)[C@H](O)[C@H]2O)[C@@H](O)[C@H](O)[C@H]1O)[C@H]1CC[C@]2(C)[C@@H]1[C@H](O)C[C@@H]1[C@@]3(C)CC[C@H](O[C@@H]4O[C@H](CO)[C@@H](O)[C@H](O)[C@H]4O[C@@H]4O[C@H](CO)[C@@H](O)[C@H](O)[C@H]4O)C(C)(C)[C@@H]3CC[C@]12C` [Rb3]: the IC50 in data set [1] (HepG2.2.15, 48 h) is 4.1 µM. Besides, in data set [1] (HepG2.2.15, 96 h), the half-inhibitory concentration (IC50) is 3.2 µM. In addition, in data set [1], the “knockdown effects on HBs protein mRNA expression levels” value is recorded as “wear off completely” and the “knockdown HBs protein mRNA expression levels (in words)” value was “especially effective”. In addition, in the data set with HepG2.2.15 cells, the HepG2.2.15 cytotoxicity entry is reported as “no significant HepG2.2.15 cytotoxicity” and the cell viabilities result is given as “Slightly reduced cell viabilities”.

With `C=C(CCC=C(C)C)[C@H]1CC[C@]2(C)[C@@H]1[C@H](O)C[C@@H]1[C@@]3(C)CC[C@H](O)C(C)(C)[C@@H]3[C@@H](O[C@@H]3O[C@H](CO)[C@@H](O)[C@H](O)[C@H]3O[C@@H]3O[C@@H](C)[C@H](O)[C@@H](O)[C@H]3O)C[C@]12C` [Rg6], the IC50 in data set [1] (HepG2.2.15, 48 h) is 5.1 µM. Further, the IC50 in data set [1] (HepG2.2.15, 96 h) was 3.2 µM. Besides, in data set [1], the “knockdown effects on HBs protein mRNA expression levels” value is recorded as “wear off completely” and the “knockdown HBs protein mRNA expression levels (in words)” value was “especially effective”. In the data set on HepG2.2.15 cells, the HepG2.2.15 cytotoxicity result is on record as “no significant HepG2.2.15 cytotoxicity” and the cell viabilities result is “Slightly reduced cell viabilities”.

The IC50 is the concentration needed to halve the response being measured.

The values above are taken from patent publication EP4444311B1, “GI[…] TREATMENT OF CHRONIC HEPATITIS B VIRUS INFECTIONS” (priority 2021, dated 2023).
